Assays:
Format in all cases: biochemical
Details in all cases: 1 μM of the Example
AURKB (Aurora B) = AURKB (Aurora B) (Homo sapiens (Human), UniProt Q96GD4); experiment: Kinase selectivity, Z'-LYTE assay platform
BRAF V599E = BRAF V599E (Homo sapiens (Human), UniProt P15056, V600E); experiment: Kinase selectivity, Z'-LYTE assay platform
CDK1/cyclin B = CDK1/cyclin B (Homo sapiens (Human), UniProt P06493); experiment: Kinase selectivity, Z'-LYTE assay platform
CHEK2 (CHK2) = CHEK2 (CHK2) (Homo sapiens (Human), UniProt O96017); experiment: Kinase selectivity, Z'-LYTE assay platform
Chain of CHEK2 (CHK2) (O96017 whole entry): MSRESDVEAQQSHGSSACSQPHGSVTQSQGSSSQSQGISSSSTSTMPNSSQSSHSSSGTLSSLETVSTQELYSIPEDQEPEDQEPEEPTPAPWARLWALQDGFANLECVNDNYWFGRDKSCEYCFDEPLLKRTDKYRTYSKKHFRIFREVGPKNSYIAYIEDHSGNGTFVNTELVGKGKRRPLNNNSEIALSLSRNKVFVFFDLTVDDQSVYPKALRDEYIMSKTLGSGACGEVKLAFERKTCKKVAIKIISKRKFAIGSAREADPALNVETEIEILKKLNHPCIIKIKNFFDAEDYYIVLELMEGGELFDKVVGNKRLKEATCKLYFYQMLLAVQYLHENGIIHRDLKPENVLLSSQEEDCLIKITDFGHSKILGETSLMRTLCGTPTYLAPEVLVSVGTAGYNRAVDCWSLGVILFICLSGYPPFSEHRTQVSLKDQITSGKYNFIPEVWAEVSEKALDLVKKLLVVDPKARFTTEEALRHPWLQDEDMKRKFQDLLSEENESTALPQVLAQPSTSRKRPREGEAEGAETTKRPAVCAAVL

CLK2 = CLK2 (Homo sapiens (Human), UniProt P49760); experiment: Kinase selectivity, Z'-LYTE assay platform
Chain of CLK2 (P49760 whole entry): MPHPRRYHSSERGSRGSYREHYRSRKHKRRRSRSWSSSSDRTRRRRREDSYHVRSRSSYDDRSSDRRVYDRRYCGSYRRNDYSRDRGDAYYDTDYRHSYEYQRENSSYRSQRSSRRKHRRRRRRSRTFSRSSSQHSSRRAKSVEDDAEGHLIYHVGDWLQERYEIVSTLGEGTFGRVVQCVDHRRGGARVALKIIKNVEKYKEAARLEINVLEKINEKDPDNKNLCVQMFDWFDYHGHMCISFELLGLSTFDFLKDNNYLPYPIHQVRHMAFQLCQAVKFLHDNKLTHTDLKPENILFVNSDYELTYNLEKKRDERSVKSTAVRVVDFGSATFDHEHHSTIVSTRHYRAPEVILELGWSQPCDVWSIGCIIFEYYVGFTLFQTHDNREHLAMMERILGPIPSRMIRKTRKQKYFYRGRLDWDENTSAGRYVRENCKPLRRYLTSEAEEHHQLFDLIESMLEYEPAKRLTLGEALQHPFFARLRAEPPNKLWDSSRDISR

DYRK1A = DYRK1A (Homo sapiens (Human), UniProt Q13627); experiment: Kinase selectivity, Z'-LYTE assay platform
IRAK1 = IRAK1 (Homo sapiens (Human), UniProt P51617); experiment: Kinase selectivity, Adapta assay platform
Chain of IRAK1 (P51617 whole entry): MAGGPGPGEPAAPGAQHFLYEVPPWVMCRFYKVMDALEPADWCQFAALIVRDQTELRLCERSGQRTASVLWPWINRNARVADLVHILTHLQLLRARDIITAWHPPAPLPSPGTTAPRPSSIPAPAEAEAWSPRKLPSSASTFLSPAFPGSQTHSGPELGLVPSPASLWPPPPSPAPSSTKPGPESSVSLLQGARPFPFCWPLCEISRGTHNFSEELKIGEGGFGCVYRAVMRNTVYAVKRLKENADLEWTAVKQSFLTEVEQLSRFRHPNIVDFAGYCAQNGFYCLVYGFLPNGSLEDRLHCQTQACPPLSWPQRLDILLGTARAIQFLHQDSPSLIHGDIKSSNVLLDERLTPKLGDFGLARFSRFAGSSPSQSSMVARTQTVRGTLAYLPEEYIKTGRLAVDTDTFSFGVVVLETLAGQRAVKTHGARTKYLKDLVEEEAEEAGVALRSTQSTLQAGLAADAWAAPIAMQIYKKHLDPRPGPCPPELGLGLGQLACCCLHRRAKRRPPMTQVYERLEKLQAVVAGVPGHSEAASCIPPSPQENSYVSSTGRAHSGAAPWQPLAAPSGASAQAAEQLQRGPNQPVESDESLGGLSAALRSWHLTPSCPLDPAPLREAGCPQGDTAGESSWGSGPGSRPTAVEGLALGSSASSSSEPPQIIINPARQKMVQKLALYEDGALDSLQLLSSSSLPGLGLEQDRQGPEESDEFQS

JAK3 = JAK3 (Homo sapiens (Human), UniProt P52333); experiment: Kinase selectivity, Z'-LYTE assay platform
MAPK1 (ERK2) = MAPK1 (ERK2) (Homo sapiens (Human), UniProt P28482); experiment: Kinase selectivity, Z'-LYTE assay platform
Chain of MAPK1 (ERK2) (P28482 whole entry): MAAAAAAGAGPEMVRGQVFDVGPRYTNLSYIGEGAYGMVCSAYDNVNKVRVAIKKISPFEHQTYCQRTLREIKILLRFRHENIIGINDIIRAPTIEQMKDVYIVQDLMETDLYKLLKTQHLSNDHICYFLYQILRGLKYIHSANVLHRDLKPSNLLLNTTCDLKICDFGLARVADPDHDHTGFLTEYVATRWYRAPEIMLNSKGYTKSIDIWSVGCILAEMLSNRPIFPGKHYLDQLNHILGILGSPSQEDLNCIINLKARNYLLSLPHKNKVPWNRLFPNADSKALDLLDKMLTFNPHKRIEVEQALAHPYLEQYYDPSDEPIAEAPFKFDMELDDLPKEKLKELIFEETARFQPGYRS

MAPK8 (JNK1) = MAPK8 (JNK1) (Homo sapiens (Human), UniProt P45983); experiment: Kinase selectivity, Z'-LYTE assay platform
Chain of MAPK8 (JNK1) (P45983 whole entry): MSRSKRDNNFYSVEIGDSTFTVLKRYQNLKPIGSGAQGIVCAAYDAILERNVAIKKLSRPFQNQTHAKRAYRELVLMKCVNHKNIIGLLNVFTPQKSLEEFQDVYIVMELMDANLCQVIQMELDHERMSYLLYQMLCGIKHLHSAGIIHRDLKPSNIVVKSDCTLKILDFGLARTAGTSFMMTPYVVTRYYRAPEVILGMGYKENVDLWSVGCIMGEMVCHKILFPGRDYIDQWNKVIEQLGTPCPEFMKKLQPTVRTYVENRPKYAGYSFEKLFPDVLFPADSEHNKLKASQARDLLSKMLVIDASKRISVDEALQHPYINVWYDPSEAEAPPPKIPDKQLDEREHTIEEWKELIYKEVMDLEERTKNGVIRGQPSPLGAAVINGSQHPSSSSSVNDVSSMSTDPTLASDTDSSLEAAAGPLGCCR

Chain of CDK1/cyclin B (P06493 whole entry): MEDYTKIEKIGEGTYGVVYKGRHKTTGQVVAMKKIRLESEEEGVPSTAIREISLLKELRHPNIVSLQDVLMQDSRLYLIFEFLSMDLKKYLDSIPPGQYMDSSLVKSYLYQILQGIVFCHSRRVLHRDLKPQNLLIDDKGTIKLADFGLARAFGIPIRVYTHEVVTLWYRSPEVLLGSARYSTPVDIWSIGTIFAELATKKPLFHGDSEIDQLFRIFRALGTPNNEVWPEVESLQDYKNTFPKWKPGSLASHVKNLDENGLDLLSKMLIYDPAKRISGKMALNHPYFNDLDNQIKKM
Chain of CDK1/cyclin B (P14635 whole entry partner): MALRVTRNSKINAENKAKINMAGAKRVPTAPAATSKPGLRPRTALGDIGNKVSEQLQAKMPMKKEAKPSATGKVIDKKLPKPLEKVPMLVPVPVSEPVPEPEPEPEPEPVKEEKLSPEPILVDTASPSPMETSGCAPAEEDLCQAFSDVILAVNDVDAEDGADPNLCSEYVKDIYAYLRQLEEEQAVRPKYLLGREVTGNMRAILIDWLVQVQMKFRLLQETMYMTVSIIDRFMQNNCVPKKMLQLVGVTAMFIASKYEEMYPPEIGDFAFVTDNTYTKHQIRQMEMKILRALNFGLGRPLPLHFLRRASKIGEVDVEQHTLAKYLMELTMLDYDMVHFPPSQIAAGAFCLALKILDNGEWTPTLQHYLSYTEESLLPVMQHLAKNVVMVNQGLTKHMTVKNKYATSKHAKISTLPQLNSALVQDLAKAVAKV
Chain of AURKB (Aurora B) (Q96GD4 whole entry): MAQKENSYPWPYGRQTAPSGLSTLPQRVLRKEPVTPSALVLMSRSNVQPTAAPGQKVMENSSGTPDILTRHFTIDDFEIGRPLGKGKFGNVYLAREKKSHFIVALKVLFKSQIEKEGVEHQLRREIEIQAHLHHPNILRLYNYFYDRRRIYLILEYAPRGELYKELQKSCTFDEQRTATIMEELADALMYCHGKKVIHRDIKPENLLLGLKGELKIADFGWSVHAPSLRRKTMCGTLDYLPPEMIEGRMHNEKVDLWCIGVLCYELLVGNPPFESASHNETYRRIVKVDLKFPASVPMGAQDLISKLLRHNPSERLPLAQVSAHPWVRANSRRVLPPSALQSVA
Chain of BRAF V599E (P15056 416-766 V600E limits assumed): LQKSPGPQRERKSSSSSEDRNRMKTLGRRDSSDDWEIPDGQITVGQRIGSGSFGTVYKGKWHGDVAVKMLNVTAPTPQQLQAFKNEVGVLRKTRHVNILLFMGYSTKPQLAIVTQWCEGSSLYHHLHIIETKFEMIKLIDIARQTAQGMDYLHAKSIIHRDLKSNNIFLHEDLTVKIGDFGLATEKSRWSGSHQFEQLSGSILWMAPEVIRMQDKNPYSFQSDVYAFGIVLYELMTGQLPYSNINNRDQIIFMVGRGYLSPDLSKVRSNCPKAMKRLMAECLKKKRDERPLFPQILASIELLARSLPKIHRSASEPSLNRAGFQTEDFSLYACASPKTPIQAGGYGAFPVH

| Compound | percent inhibition AURKB (Aurora B) (AURKB (Aurora B)) [%] | percent inhibition BRAF V599E (BRAF V599E) [%] | percent inhibition CDK1/cyclin B (CDK1/cyclin B) [%] | percent inhibition CHEK2 (CHK2) (CHEK2 (CHK2)) [%] | percent inhibition CLK2 (CLK2) [%] | percent inhibition DYRK1A (DYRK1A) [%] | percent inhibition IRAK1 (IRAK1) [%] | percent inhibition JAK3 (JAK3) [%] | percent inhibition MAPK1 (ERK2) (MAPK1 (ERK2)) [%] | percent inhibition MAPK8 (JNK1) (MAPK8 (JNK1)) [%] |
| --- | --- | --- | --- | --- | --- | --- | --- | --- | --- | --- |
| CO[C@H]1CCN(c2cc(-c3n[nH]c4ccc(OC5(C)CC5)cc34)ncn2)C1 [Example 12] | 37 | 11 | 43 | 17 | 53 | 5 | 31 | 12 | 10 | 40 |
| C[C@@H]1CN(c2cc(-c3n[nH]c4ccc(OC5(C)CC5)cc34)ncn2)C[C@H](C)O1 [Example 51] | 16 | 10 | 1 | 15 | 55 | 4 | −15 | 7 | −4 | 0 |
| CC1(Oc2ccc3[nH]nc(-c4cc(N5CCOCC5)ncn4)c3c2)CC1 [Example 1] | 28 | 24 | 10 | 21 | 57 | 16 | 23 | 7 | 8 | 56 |

— US9493440B2, “Compounds inhibiting leucine-rich repeat kinase enzyme activity” (Merck Sharp & Dohme Corp., priority 2013, dated 2016)
